Measurements reported in patent US12297190B2, “Modulators of STING (stimulator of interferon genes)” (PFIZER INC., priority 2019, dated 2025).
Counter-ions that a name gives are not always drawn.

Tests used:
STING [1] = biological target: T1, STING (Homo sapiens, UniProt Q86WV6, G230A/H232R/R293Q/R71H); experiment: Phosphorylation of IRF3: THP-1 cell ELISA; format: cell-based; conditions: THP-1 cells, 3 hours incubation, phospho-IRF3 ELISA; read-out: THP-1 CELL P-IRF3 EC50
T1 construct: host or cells: THP-1 and THP-1 Lucia ISG cells
Procedure: Phosphorylation of IRF3: THP-1 Cell ELISA
STING activation results in recruitment of TBK1 and phosphorylation of IRF3 transcription factor before induction of type I interferons. THP-1 cells (InvivoGen) were grown in RPMI media plus 2 mM L-glutamine, 10% fetal bovine serum, and 0.5% Pen-Strep. 10^4 cells were seeded in 96-well plates and incubated overnight 37° C., 5% CO2. Compounds serial diluted compounds in media (final 0.5% DMSO) were added to the cells and incubated for an additional 3 hours. After incubation, the plates were centrifuged at 2000 rpm for 5 min. The cells were then lysed in 100 μl RIPA buffer and vortexed for 30 minutes at room temperature. 25 μl of lysate was then transferred to clear polystyrene High Bind plates that had been previously coated with mouse anti-human IRF-3 capture antibody (BD Pharmigen), and allowed to incubate at 4° C. for 16 hours. The plates were then washed and incubated with rabbit anti-phospho-IRF3 detection antibody (Cell Signaling Technologies) for 1.5 hours at room temperature. Finally, an HRP-linked secondary antibody (Cell Signaling Technologies) was added for 30 min before the Glo Substrate Reagent (R&D Systems) was used generate the luminescent signal. The signal was measured using a Perkin-Elmer Envision microplate reader. Data were normalized to “% effect” with a positive control STING agonist that was known to maximize the phosphorylated IRF3 signal and the negative control was DMSO.

STING [2] = biological target: T1, STING; experiment: Interferon-β induction: THP-1 Lucia ISG reporter cell line; format: cell-based; conditions: THP-1 Lucia ISG cells, 24 hours incubation, luciferase reporter; read-out: THP-1 Lucia ISG Cells IFN-β EC50
Procedure: Interferon-β Induction: THP-1 ISG Reporter Cell Line
THP-1 Lucia™ ISG cells (InvivoGen) express the secreted luciferase “Lucia” reporter gene under the control of an IRF-inducible composite promotor comprised of five interferon response elements. THP-1 Lucia™ ISG cells were grown in RPMI media plus 2 mM L-glutamine, 10% fetal bovine serum, and 0.5% Pen-Strep. Hygromycin B and Zeocin were present to maintain stable transfection. 10^4 cells were seeded in 96-well plates and incubated overnight 37° C., 5% CO2. 50 μL of serial diluted compounds in media (final 0.5% DMSO) was and incubated for an additional 24 hours. After incubation, the plates were centrifuged at 2000 rpm for 10 min. 50 μl of cell culture supernatant of each well was transferred to a white, opaque 96-well plate. One pouch of QUANTI-Luc™ (InvivoGen) powder was prepared in 25 mL of endotoxin-free water and 100 μL of prepared warm QUANTI-Luc solution were added to each well containing the supernatant. The luminescence signal was measured using a Perkin-Elmer Envision microplate reader. Data were normalized to “% effect” with a positive control STING agonist that was known to maximize the luciferase signal and the negative control DMSO.

R232-STING = R232-STING (Homo sapiens, UniProt Q86WV6, H232R); experiment: biochemical
Sequence of R232-STING (Q86WV6 155-341 H232R): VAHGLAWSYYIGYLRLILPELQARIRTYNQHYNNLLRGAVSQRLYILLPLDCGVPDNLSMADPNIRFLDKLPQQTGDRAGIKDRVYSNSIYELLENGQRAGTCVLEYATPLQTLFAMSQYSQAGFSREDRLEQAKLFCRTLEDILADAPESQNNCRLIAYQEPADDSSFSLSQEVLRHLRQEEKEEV

T1 sequence (Q86WV6 whole entry R71H/G230A/H232R/R293Q): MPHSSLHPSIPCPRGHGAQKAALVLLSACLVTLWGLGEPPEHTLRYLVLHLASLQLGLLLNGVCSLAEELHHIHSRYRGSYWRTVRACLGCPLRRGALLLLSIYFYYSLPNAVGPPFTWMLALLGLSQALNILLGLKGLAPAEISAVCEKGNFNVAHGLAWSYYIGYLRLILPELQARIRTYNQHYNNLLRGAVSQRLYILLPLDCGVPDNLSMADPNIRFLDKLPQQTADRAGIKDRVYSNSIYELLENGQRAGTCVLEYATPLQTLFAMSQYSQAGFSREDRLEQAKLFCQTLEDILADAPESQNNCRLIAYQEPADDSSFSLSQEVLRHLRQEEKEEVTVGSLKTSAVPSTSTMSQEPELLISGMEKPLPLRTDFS

| Structure (SMILES) | EC50 (STING [1]) | EC50 (STING [2]) | Ki (R232-STING) |
| --- | --- | --- | --- |
| CCn1nc(C)c(Cl)c1-c1nc(-c2cc(C(N)=O)cc3c2cnn3C)n[nH]1 [Example C04, 4-[5-(4-chloro-1-ethyl-3-methyl-1H-pyrazol-5-yl)-1H-1,2,4-triazol-3-yl]-1-methyl-1H-indazole-6-carboxamide] | 250 nM | 240 nM | 13.3 nM |
| CCn1nc(C)cc1-c1nc(-c2nc(C(N)=O)cc3c2cnn3C)n(C)n1 [Example J01, 4-[3-(1-ethyl-3-methyl-1H-pyrazol-5-yl)-1-methyl-1H-1,2,4-triazol-5-yl]-1-methyl-1H-pyrazolo[4,3-c]pyridine-6-carboxamide] | 530 nM | 510 nM | 14.2 nM |
| CCn1nc(C)cc1-c1nc(-c2nc(C(N)=O)cc3c2cnn3C)c(C(C)N)s1 (racemic) [Compound W-7, 1-(4-(6-carbamoyl-1-methyl-1H-pyrazolo[4,3-c]pyridin-4-yl)-2-(1-ethyl-3-methyl-1H-pyrazol-5-yl)thiazol-5-yl)ethan-1-aminium trifluoroacetate] | 1500 nM | 1870 nM | 33.4 nM |
| CCn1nc(C)c(Cl)c1-c1nc(-c2nc(C(N)=O)cc3c2cnn3C)c(CN)s1 [YY35, 4-[5-(aminomethyl)-2-(4-chloro-1-ethyl-3-methyl-1H-pyrazol-5-yl)-1,3-thiazol-4-yl]-1-methyl-1H-pyrazolo[4,3-c]pyridine-6-carboxamide] | > 10000 nM | > 10000 nM | 108 nM |
| CCn1nc(C)c(O)c1-c1nc(-c2nc(C(N)=O)cc3c2cnn3C)n(C)n1 [Example Q01, 4-[3-(1-ethyl-4-hydroxy-3-methyl-1H-pyrazol-5-yl)-1-methyl-1H-1,2,4-triazol-5-yl]-1-methyl-1H-pyrazolo[4,3-c]pyridine-6-carboxamide] | 120 nM | 140 nM | 3.2 nM |
| CCn1ncc(O)c1-c1nc(-c2nc(C(N)=O)cc3c2cnn3C)c(CN)o1 [Example U02] | 6500 nM | 6200 nM | 51.6 nM |
| CCn1nc(C)cc1-c1n[nH]c(-c2cc(C(N)=O)cc3c2cnn3CC(=O)O)n1 [Example P01, {6-carbamoyl-4-[3-(1-ethyl-3-methyl-1H-pyrazol-5-yl)-1H-1,2,4-triazol-5-yl]-1H-indazol-1-yl}acetic acid] | 75600 nM | ≥ 100000 nM | 241 nM |
| CCn1nc(C)cc1-c1nnc(-c2cc(C(N)=O)cc3c2cnn3CCN(C)C)[nH]1 [YY04, 1-[2-(dimethylamino)ethyl]-4-[5-(1-ethyl-3-methyl-1H-pyrazol-5-yl)-4H-1,2,4-triazol-3-yl]-1H-indazole-6-carboxamide] | > 100000 nM | > 100000 nM | > 638 nM |
| CCn1nc(C)cc1-c1nnc(-c2cc(C(N)=O)cc3c2cnn3[C@H](C)CN2CCOCC2)[nH]1 [YY07, 4-[5-(1-ethyl-3-methyl-1H-pyrazol-5-yl)-4H-1,2,4-triazol-3-yl]-1-[(2R)-1-(morpholin-4-yl)propan-2-yl]-1H-indazole-6-carboxamide] | > 100000 nM | > 100000 nM | 337 nM |
| CCn1nc(C)c(F)c1-c1nc(-c2cc(C(N)=O)cc3c2cnn3CCN2CCOCC2)n[nH]1 [Example C05, 4-[5-(1-ethyl-4-fluoro-3-methyl-1H-pyrazol-5-yl)-1H-1,2,4-triazol-3-yl]-1-[2-(morpholin-4-yl)ethyl]-1H-indazole-6-carboxamide] | 31600 nM | 27400 nM | 165 nM |
| CCn1nc(C)cc1-c1nc(-c2cc(C(N)=O)cc3c2cnn3C)nn1COP(=O)(O)O [Example N01, [3-(6-carbamoyl-1-methyl-1H-indazol-4-yl)-5-(1-ethyl-3-methyl-1H-pyrazol-5-yl)-1H-1,2,4-triazol-1-yl]methyl dihydrogenphosphate] | ≥ 100000 nM | 76900 nM | – |
| CCn1nc(C)cc1-c1nnc(-c2cc(C(N)=O)cc3c2cnn3CCN2CCC(C)CC2)[nH]1 [ZZZ018, 4-[5-(1-ethyl-3-methyl-1H-pyrazol-5-yl)-4H-1,2,4-triazol-3-yl]-1-[2-(4-methylpiperidin-1-yl)ethyl]-1H-indazole-6-carboxamide] | – | – | 748 nM |
| Cc1nn(CC(CO)CO)c(-c2n[nH]c(-c3cc(C(N)=O)cc4c3cnn4C)n2)c1F [ZZZ049, 4-(3-{4-fluoro-1-[3-hydroxy-2-(hydroxymethyl)propyl]-3-methyl-1H-pyrazol-5-yl}-1H-1,2,4-triazol-5-yl)-1-methyl-1H-indazole-6-carboxamide] | – | – | > 900 nM |
| CCn1nc(C)c(F)c1-c1nc(-c2cc(C(N)=O)cc3c2cnn3C)n(C)n1 [ZZZ129, 4-[3-(1-ethyl-4-fluoro-3-methyl-1H-pyrazol-5-yl)-1-methyl-1H-1,2,4-triazol-5-yl]-1-methyl-1H-indazole-6-carboxamide] | – | – | 952 nM |
| CCn1nc(C)cc1-c1nnc(-c2cc(C(N)=O)cc3c2cnn3C[C@H]2CCCCN2C)[nH]1 [ZZZ032, 4-[5-(1-ethyl-3-methyl-1H-pyrazol-5-yl)-4H-1,2,4-triazol-3-yl]-1-{[(2R)-1-methylpiperidin-2-yl]methyl}-1H-indazole-6-carboxamide] | – | – | 967 nM |
| CCn1nc(C)cc1-c1n[nH]c(-c2cc(C(N)=O)cc3c2cnn3CCN2CC[C@@H](O)C2)n1 [ZZZ107, 4-[3-(1-ethyl-3-methyl-1H-pyrazol-5-yl)-1H-1,2,4-triazol-5-yl]-1-{2-[(3R)-3-hydroxypyrrolidin-1-yl]ethyl}-1H-indazole-6-carboxamide] | – | – | > 990 nM |
| CCn1nc(C)cc1-c1nnc(-c2cc(C(N)=O)cc3c2cnn3CCCC2CCNCC2)[nH]1 [ZZZ077, 4-[5-(1-ethyl-3-methyl-1H-pyrazol-5-yl)-4H-1,2,4-triazol-3-yl]-1-[3-(piperidin-4-yl)propyl]-1H-indazole-6-carboxamide] | – | – | > 990 nM |
| CCn1nc(C)cc1-c1nnc(-c2cc(C(N)=O)cc3c2cnn3CC[C@H]2CCCCN2C)[nH]1 (racemic) [ZZZ023, 4-[5-(1-ethyl-3-methyl-1H-pyrazol-5-yl)-4H-1,2,4-triazol-3-yl]-1-{2-[(2R)-1-methylpiperidin-2-yl]ethyl}-1H-indazole-6-carboxamide] | – | – | > 990 nM |
| CCn1nc(C)cc1-c1nc(-c2nc(C(N)=O)cc3c2cnn3C)n(CCNC)n1 [ZZZ126, 4-{3-(1-ethyl-3-methyl-1H-pyrazol-5-yl)-1-[2-(methylamino)ethyl]-1H-1,2,4-triazol-5-yl}-1-methyl-1H-pyrazolo[4,3-c]pyridine-6-carboxamide] | – | – | > 990 nM |
| CCn1nc(C)cc1-c1nnc(-c2cc(C(N)=O)cc3c2cnn3CCCNC2CCCCC2)[nH]1 [ZZZ071, 1-[3-(cyclohexylamino)propyl]-4-[5-(1-ethyl-3-methyl-1H-pyrazol-5-yl)-4H-1,2,4-triazol-3-yl]-1H-indazole-6-carboxamide] | – | – | > 990 nM |
| CCn1nc(C)cc1-c1nnc(-c2cc(C(N)=O)cc3c2cnn3[C@H]2CC[C@@H](NC)CC2)[nH]1 [ZZZ075, 4-[5-(1-ethyl-3-methyl-1H-pyrazol-5-yl)-4H-1,2,4-triazol-3-yl]-1-[(1s,4s)-4-(methylamino)cyclohexyl]-1H-indazole-6-carboxamide] | – | – | 961 nM |
| CCn1nc(C)cc1-c1nnc(-c2cc(C(N)=O)cc3c2cnn3[C@@H](C)CN2CCCC2)[nH]1 [ZZZ024, 4-[5-(1-ethyl-3-methyl-1H-pyrazol-5-yl)-4H-1,2,4-triazol-3-yl]-1-[(2S)-1-(pyrrolidin-1-yl)propan-2-yl]-1H-indazole-6-carboxamide] | – | – | > 990 nM |
| CCn1nc(C)cc1-c1nnc(-c2cc(C(N)=O)cc3c2cnn3C[C@H]2[C@@H]3CNC[C@@H]32)[nH]1 [ZZZ058, 1-{[(1R,5S,6r)-3-azabicyclo[3.1.0]hexan-6-yl]methyl}-4-[5-(1-ethyl-3-methyl-1H-pyrazol-5-yl)-4H-1,2,4-triazol-3-yl]-1H-indazole-6-carboxamide] | – | – | > 990 nM |
| CCn1nc(C)c(F)c1-c1nc(-c2nc(C(N)=O)cc3c2cnn3CCN2C[C@@H](C)O[C@@H](C)C2)n(C)n1 [ZZZ087, 1-{2-[(2R,6S)-2,6-dimethylmorpholin-4-yl]ethyl}-4-[3-(1-ethyl-4-fluoro-3-methyl-1H-pyrazol-5-yl)-1-methyl-1H-1,2,4-triazol-5-yl]-1H-pyrazolo[4,3-c]pyridine-6-carboxamide] | – | – | > 990 nM |
